Measurements: patent US8609652B2, “Method of administering a methylene blue-curcumin analog for the treatment of alzheimer's disease” (DePuy Synthes Products, LLC, priority 2009, dated 2013)
“Also recorded” adds a separate entry of the source. Where a name gives a salt, the structure may show the parent alone. Read-outs that look alike come from different tables or passages of the source.

Key:
[1] = cited from earlier work; for Parent Solubility: parent phenol
PC12 cells = assay: relative potency versus curcumin in in vitro protection of PC12 cells against beta amyloid insult; assay type: cell-based
Text: Each of the parent compounds may be obtained by the methods disclosed in Park.
It is further observed that both of these qualities can be placed into the same molecule (35).

PC12 cells, βA (25-35) = conditions: cited from earlier work; for anti-βA (25-35) ED50: Park, concentration required to achieve 50% cell viability
PC12 cells, βA (1-42) = conditions: cited from earlier work; for anti-βA (1-42) ED50: Park
[2] = in vivo, 1 mg/kg
Text: In some embodiments, the water-soluble ester prodrug is created by reacting the phenolic parent compound with dimethylglycine. The literature reports rendering lipophilic phenolic compounds water soluble by reacting the phenolic parent compound with dimethylglycine. […]. Al-Ghananeem concluded that the prodrug provides for targeted intranasal delivery of 17B-estradiol to the brain.

[3] = cited from earlier work
[4] = cited from earlier work; for peak cerebrospinal fluid (CSF) concentration of estradiol: in vivo, 1 mg/kg
[5] = cited from earlier work; remark: listed apart in the source
[6] = predicted curcumin levels from transdermal iontophoresis of charged curcumin prodrugs; assay type: in vivo, human
[7] = cited from earlier work; for serum Cmax: volunteers
[8] = cited from earlier work; remark: listed apart in the source
UGT1A1 = molecular target: T1, UGT1A1 (Homo sapiens, UniProt P22309); conditions: about one hour after exposure; cited from earlier work
T1 sequence (P22309 26-533): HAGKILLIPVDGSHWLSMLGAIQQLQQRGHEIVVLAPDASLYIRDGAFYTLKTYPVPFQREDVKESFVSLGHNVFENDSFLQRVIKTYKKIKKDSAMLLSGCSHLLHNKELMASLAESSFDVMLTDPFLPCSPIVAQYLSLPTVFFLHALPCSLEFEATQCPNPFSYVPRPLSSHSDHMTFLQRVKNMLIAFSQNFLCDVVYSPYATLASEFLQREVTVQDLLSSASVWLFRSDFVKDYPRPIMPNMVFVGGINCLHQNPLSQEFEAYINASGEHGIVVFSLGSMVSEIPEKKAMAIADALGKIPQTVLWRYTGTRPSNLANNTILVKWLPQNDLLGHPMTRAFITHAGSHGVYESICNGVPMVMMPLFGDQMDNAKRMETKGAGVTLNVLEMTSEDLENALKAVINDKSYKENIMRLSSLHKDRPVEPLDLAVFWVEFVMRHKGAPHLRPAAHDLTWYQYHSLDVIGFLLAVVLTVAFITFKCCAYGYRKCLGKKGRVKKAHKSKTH

[9] = oral dosing, cited from earlier work
amyloid plaques = conditions: injected peripherally, aged Tg mice; cited from earlier work
MRP2 = MRP2 (Homo sapiens, UniProt Q92887); conditions: read-out: IC50, MRP-2-mediated transport; Wortelboer; cited from earlier work
MRP2, sequence (Q92887 whole entry): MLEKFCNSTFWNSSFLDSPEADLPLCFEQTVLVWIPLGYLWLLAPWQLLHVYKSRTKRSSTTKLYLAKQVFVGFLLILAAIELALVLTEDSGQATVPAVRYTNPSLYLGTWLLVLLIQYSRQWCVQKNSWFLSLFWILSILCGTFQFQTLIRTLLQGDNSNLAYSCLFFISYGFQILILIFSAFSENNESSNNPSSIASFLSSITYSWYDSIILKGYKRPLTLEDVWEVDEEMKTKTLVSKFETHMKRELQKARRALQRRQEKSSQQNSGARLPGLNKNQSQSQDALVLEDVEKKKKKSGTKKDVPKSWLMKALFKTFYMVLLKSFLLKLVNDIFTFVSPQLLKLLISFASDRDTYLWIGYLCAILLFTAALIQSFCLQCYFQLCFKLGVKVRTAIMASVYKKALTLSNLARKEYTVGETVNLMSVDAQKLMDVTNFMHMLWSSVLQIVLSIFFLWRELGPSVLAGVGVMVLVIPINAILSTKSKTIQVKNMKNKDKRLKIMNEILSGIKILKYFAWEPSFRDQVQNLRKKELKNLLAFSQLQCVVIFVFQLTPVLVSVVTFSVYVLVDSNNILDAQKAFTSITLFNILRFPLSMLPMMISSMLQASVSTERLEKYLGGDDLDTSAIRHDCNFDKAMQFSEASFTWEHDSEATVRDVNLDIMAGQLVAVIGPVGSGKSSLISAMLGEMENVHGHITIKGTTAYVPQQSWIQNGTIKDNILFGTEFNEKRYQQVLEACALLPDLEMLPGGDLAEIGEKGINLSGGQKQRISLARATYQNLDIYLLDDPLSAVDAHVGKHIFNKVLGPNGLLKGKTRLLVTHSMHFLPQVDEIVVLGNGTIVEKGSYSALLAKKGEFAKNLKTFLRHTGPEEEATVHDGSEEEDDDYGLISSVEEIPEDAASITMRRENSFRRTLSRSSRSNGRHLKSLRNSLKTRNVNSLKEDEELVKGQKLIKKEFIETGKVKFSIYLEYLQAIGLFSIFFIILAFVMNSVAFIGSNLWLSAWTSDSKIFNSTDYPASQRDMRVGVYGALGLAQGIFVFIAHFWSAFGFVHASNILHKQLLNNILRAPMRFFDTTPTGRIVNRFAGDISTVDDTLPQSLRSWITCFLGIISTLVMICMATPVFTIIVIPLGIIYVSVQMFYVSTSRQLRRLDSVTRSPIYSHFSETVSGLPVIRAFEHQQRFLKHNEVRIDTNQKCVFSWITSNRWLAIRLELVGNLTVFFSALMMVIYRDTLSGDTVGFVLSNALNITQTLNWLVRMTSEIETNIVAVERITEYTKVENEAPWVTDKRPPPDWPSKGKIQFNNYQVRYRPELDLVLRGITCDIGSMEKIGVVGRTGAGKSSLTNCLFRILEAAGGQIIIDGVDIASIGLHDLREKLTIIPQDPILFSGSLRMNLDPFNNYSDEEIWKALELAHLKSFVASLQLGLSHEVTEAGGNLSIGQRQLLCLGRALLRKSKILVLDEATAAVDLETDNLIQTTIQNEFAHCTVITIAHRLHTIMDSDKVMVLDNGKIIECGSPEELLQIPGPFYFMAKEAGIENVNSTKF

[10] = brain tissue concentration after curcumin injection (Wang); conditions: injection of 30 mg/kg
[11] = system: enzymatic glucuronidation activity; conditions: concentrations in excess of about 10 mM; cited from earlier work
[12] = cited from earlier work; remark: listed apart in the source
[13] = carbamazepine peak brain tissue concentration by route (Barakat)
UGT enzymes = conditions: cited from earlier work
[14] = reservoir concentration about 25-50 mg/ml

Nc1nc2c(ncn2COCCO)c(=O)[nH]1 [Acyclovir]
solubility in water of the unmodified compound [1]: 1.4 mg/mL

O=C(C=Cc1ccc(O)cc1)CC(=O)CCc1ccc(O)cc1 [compound 34, 1,7-bis(4-hydroxyphenyl)-1-heptene-3,5-dione]
fold more potent than curcumin as neuroprotectant against beta amyloid (PC12 cells; analysis of the Park data): ~10 fold | anti-βA (25-35) ED50 (PC12 cells, βA (25-35)): 0.5 ± 0.2 µg/mL | anti-βA (1-42) ED50 (PC12 cells, βA (1-42)): 1.0 ± 0.3 µg/mL

CN(C)CCCC(=O)O[C@H]1CC[C@H]2[C@@H]3CCc4cc(O)ccc4[C@H]3CC[C@]12C.Cl [17-DMABE2HCl, 17-N,N dimethylamino butyl ester HCl]
peak CSF concentration (molar) [2]: about 0.075 μM | shelf life of nasal spray solution ([3]; pH 4, 25° C.): approximately 19 months | peak cerebrospinal fluid (CSF) concentration of estradiol [4]: about 30 ng/ml

CN(C)CCCC(=O)Oc1ccc2c(c1)CC[C@@H]1[C@@H]2CC[C@]2(C)[C@@H](O)CC[C@@H]12.Cl [3-DMABE2-HCl, 3-N,N dimethylamino butyl ester HCl]
peak CSF concentration (molar) [2]: ~0.15 µM | peak cerebrospinal fluid (CSF) concentration of estradiol [4]: about 66 ng/ml

CCCN(CCC)C1CCc2c(O)cccc2C1 (stereo not shown) [5-OH-DPAT]
Flux ([5]; 0.5 mg/ml): 78.4 nmol/cm/h | Flux ([5]; 1.3 mg/ml): 187.6 nmol/cm/h | Flux ([5]; 2.3 mg/ml): 318.2 nmol/cm/h | Flux [5]: 90 μg/(cm^2 · h)

CCN(CC)CCC(=O)Oc1ccc2c(c1)CC[C@@H]1[C@@H]2CC[C@]2(C)[C@@H](O)CC[C@@H]12.Cl [3-DEAPE2HCl, 3-N,N-diethylamino propionyl ester hydrochloride]
water solubility of estradiol ester prodrug ([1]; dimethylglycine ester where the label is estradiol): about 20 mg/ml

CC(C)NCC(O)COc1ccc(CC(N)=O)cc1 (stereo not shown) [Atenolol]
Flux [5]: 400 μg/(cm^2 · h)

COc1cc(C=CC(=O)CC(=O)C=Cc2ccc(O)cc2)ccc1O [compound 32, 1-(4-hydroxy-3-methoxyphenyl)-7-(4-hydroxyphenyl)-1,6-heptadiene-3,5-dione]
fold more potent than curcumin as neuroprotectant against beta amyloid (PC12 cells; analysis of the Kim data): ~1.5 fold | anti-BA (25-35) ED50 (PC12 cells, βA (25-35); Kim): 4.7 ± 0.1 µg/mL | anti-βA (25-35) ED50 (PC12 cells, βA (25-35)): 4.0 ± 0.5 µg/mL | anti-BA (1-42) ED50 (PC12 cells, βA (1-42); Kim): 4.2 ± 0.3 µg/mL | anti-βA (1-42) ED50 (PC12 cells, βA (1-42)): 5.0 ± 0.5 µg/mL

C[C@]12CC[C@H]3[C@@H](CCC4=CC(=O)CC[C@@]43C)[C@@H]1CC[C@@H]2OC(=O)[C@@H]1CCC[N+]1(C)C [testosterone-17β-stachydrine ester, chloride salt]
iontophoretic flux [5]: about 40 μg/(cm^2·h)

COc1cc(/C=C/C(=O)COC(=O)/C=C/c2ccc(O)c(OC)c2)ccc1O [compound 31, 4″-(3′″-methoxy-4′″-hydroxyphenyl)-2″-oxo-3″-enebutanyl3-(3′-methoxy-4′hydroxyphenyl)propenoate]
fold more potent than curcumin as neuroprotectant against beta amyloid (PC12 cells; analysis of the Park data): ~5 fold | anti-βA (25-35) ED50 (PC12 cells, βA (25-35)): 1.0 ± 0.3 µg/mL | anti-βA (1-42) ED50 (PC12 cells, βA (1-42)): 2.0 ± 0.4 µg/mL

CC(C)c1cccc(C(C)C)c1OC(=O)[C@@H]1CCCN1 [L-proline ester of propofol]
solubility of the prodrug [1]: about 1.1 mmol/ml

COc1cc(/C=C/C(=O)CC(=O)/C=C/c2ccc(O)c(OC)c2)ccc1O [curcumin, (E,E)-1,7-bis(4-hydroxy-3-methoxyphenyl)-1,6-heptadiene-3,5,-dione]
predicted flux ([6]; divalent curcumin salt): about 800 μg/(cm^2·h) | predicted plasma concentration ([6]; divalent curcumin salt): about 0.3 μM | predicted flux [6, 14]: about 400 μg/(cm^2·h) | predicted plasma concentration [6, 14]: about 60 ng/ml; also recorded: about 0.14 μM | predicted flux ([6]; worst case): about 35 μg/(cm^2·h) | predicted plasma concentration ([6]; worst case): about 5 ng/ml | predicted plasma concentration ([6]; worst case, flux 35, 50 cm^2, clearance 350 L/hr): 0.012 µM | AUC ([7]; Shoba, Oral + piperine): 80 µg·h/L | AUC ([7]; Shoba, Oral Dosing): 4 µg·h/L | serum Cmax ([7]; Shoba, 2 g/day oral curcumin supplemented with piperine, second of two values): 0.18 µg/mL | serum Cmax ([7]; Shoba, 2 g/day oral curcumin, first of two values): 0.006 µg/mL | AUC ([7]; Vareed, Oral Dosing): ~30 µg·h/L | area-under-the-curve (AUC) ([7]; dose of about 11 g, healthy volunteers, conjugated curcumin (Vareed)): about 30 μg/ml·hr | clearance ([7]; oral dosing of curcumin plus piperine (Shoba)): 7.33 L/h | octanol/water partition coefficient log P [8]: ~3 | inhibition of UGT1A1 (UGT1A1): about 95% | clearance ([9]; curcumin alone (Shoba)): 495 L/h | clearance ([9]; curcumin with piperine (Shoba)): 713 L/h | blood brain barrier crossing and plaque binding (amyloid plaques): crossed the blood brain barrier and bound amyloid plaques | solubility in water of the unmodified compound [1]: about 0.004 mg/ml | IC50 (MRP2): 5 µM | peak curcumin concentration in brain tissue (molar) [10]: about 0.40 uM

CCCCCCC(C)(C)c1cc(O)c2c(c1)OC(C)(C)[C@H]1CC=C(CO)C[C@H]21 [dexanabinol]
Parent Solubility [1]: 2 to 7 mg/mL

CCCCOC(=O)[C@@H](N)Cc1ccc(O)c(O)c1 [L-dopa butyl ester]
estimated time for 10% decomposition ([3]; pH 4.4, 0.05M phosphate buffer, 10° C.): 2.7 years

O=C(O)c1ccccc1O [Salicylic Acid]
Flux [5]: 41.17 μg/(cm^2 · h)

[Mg+2] [Mg^+2]
inhibition of enzymatic glucuronidation activity [11]: about 85%

C[C@]12CC[C@H](O)CC1=CC[C@@H]1[C@@H]2CC[C@]2(C)C(=O)CC[C@@H]12 [DHEA]
octanol/water partition coefficient log P [8]: 1.54

CC(C)(C)NC[C@H](O)COc1nsnc1N1CCOCC1 [Timolol]
Flux ([5]; reservoir 10 mg/ml, 2 ml): 200 μg/(cm^2 · h) | Flux ([5]; reservoir 20 mg/ml, 2 ml): 250 μg/(cm^2 · h)

OCCOCCN1CCN(C(c2ccccc2)c2ccc(Cl)cc2)CC1 (stereo not shown) [hydroxyzine.HCl]
octanol:water partition coefficient log Doct/pH 7.4 ([8]; pH 7.4): 2.37-2.87

NC(=O)N1c2ccccc2C=Cc2ccccc21 [Carbamazepine]
Peak Brain Tissue ([12]; Intranasal, 0.2 mg/kg): 12 µg/g | Peak Brain Tissue ([12]; Intravenous, 8.0 mg/kg): 4 µg/g | Peak Brain Tissue ([12]; Oral, 16 mg/kg): 3 µg/g | Peak Brain Tissue, ~uM ([13]; Intranasal, 0.2 mg/kg): ~48 µM | Peak Brain Tissue, ~uM ([13]; Intravenous, 8.0 mg/kg): ~16 µM | Peak Brain Tissue, ~uM ([13]; Oral, 16 mg/kg): ~12 µM | peak brain tissue concentration, intranasal versus oral dosing ([13]; in vivo, po): about four times higher

C[C@]12CC[C@@H]3c4ccc(O)cc4CC[C@H]3[C@@H]1CC[C@@H]2O [17β-estradiol]
octanol/water partition coefficient log P [8]: 3.1-4.0 | CSF concentration of 17B-estradiol, intranasal versus comparable intravenous dose of the prodrug ([4]; dimethylglycine ester prodrug): 5-8 fold

C[C@]12CC[C@H]3[C@@H](CCC4=CC(=O)CC[C@@]43C)[C@@H]1CC[C@@H]2O [testosterone]
Parent Solubility [1]: 0.01 mg/mL | Flux [5]: 40 μg/(cm^2 · h)

Triton X-100
inhibition of several UGT enzymes (UGT enzymes): nearly fully inhibited
